Laboratory results published in US20060240048A1 (priority 2002, published 2006).

Molecular target: T1, human cannabinoid CB2 receptor (Homo sapiens, UniProt P34972)
T1 construct: expressed in transfected cells; host or cells: Saccharomyces cerevisiae strain MMY23
Assay: Cannabinoid CB2 receptor agonist activity, yeast reporter assay (FDGlu fluorescence);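 on Emax: 100% equals maximal response of reference agonist HU210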
Format: cell-based
Conditions: for Emax: read-out: efficacy value (Emax) at the cloned human cannabinoid CB2 receptor
Protocol: The cannabinoid CB2 receptor agonist activity of the compounds of formula (I) was determined in accordance with the following experimental method.
Yeast (Saccharomyces cerevisiae) cells expressing the human cannabinoid CB2 receptor were generated by integration of an expression cassette into the ura3 chromosomal locus of yeast strain MMY23. This cassette consisted of DNA sequence encoding the human CB2 receptor flanked by the yeast GPD promoter to the 5′ end of CB2 and a yeast transcriptional terminator sequence to the 3′ end of CB2. MMY23 expresses a yeast/mammalian chimeric G-protein alpha subunit in which the C-terminal 5 amino acids of Gpa1 are replaced with the C-terminal 5 amino acids of human Gαi3 (as described in Brown et al. (2000), Yeast 16:11-22). Cells were grown at 30° C. in liquid Synthetic Complete (SC) yeast media (Guthrie and Fink (1991), Methods in Enzymology, Vol. 194) lacking uracil, tryptophan, adenine and leucine to late logarithmic phase (approximately 6 OD600/ml).
Agonists were prepared as 10 mM stocks in DMSO. […] Agonist solutions in DMSO (1% final assay volume) were transferred into black, clear bottom, microtitre plates from NUNC (96- or 384-well). […] This mixture (50 ul per well for 384-well plates, 200 ul per well for 96-well plates) was added to agonist in the assay plates (Multidrop 384, Labsystems). After incubation at 30° C. for 24 hours, fluorescence resulting from degradation of FDGlu to fluorescein due to exoglucanase, an endogenous yeast enzyme produced during agonist-stimulated cell growth, was determined using a Spectrofluor microtitre plate reader (Tecan; excitation wavelength: 485 nm; emission wavelength: 535 nm). Fluorescence was plotted against compound concentration and iteratively curve fitted using a four parameter fit to generate a concentration effect value.
where Max[compound X] and Min[compound X] are the fitted maximum and minimum respectively from the concentration effect curve for compound X, and Max[HU210] and Min[HU210] are the fitted maximum and minimum respectively from the concentration effect curve for (6aR,10aR)-3-(1,1′-Dimethylheptyl)-6a,7,10,10a-tetrahydro-1-hydroxy-6,6-dimethyl-6H-dibenzo[b,d]pyran-9-methanol (HU210; available from Tocris). Equieffective molar ratio (EMR) values were calculated from the equation EMR=EC50 [compound X]/EC50 [HU210]
Where EC50 [compound X] is the EC50 of compound X and EC50 [HU210] is the EC50 of HU210.

T1 sequence (P34972 whole entry): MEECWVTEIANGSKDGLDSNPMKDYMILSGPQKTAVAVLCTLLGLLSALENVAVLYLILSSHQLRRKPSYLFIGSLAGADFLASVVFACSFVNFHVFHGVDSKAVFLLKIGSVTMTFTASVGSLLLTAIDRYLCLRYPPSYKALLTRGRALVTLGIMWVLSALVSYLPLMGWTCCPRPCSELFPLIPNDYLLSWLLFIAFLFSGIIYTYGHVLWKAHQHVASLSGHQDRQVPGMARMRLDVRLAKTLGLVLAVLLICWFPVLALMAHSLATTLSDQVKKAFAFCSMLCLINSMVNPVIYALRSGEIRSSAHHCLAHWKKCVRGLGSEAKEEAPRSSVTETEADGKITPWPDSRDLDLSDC

SMILES | EC50 [nM] | Emax [%]
COc1cccc(Nc2cc(C(C)C)c(C(=O)NCC3CCC3)cn2)c1 [Example 38, N-Cyclobutylmethyl-4-isopropyl-6-(3-methoxy-phenylamino)-nicotinamide] | < 300 | > 50
CC(C)c1cc(Nc2cccc(F)c2)ncc1C(=O)NCC1CCOCC1 [Example 39, 6-(3-Fluoro-phenylamino)-4-isopropyl-N-(tetrahydro-pyran-4-ylmethyl)-nicotinamide] | – | > 50
COc1cccc(Nc2cc(C(C)C)c(C(=O)NCC3CCOCC3)cn2)c1 [Example 41, 4-Isopropyl-6-(3-methoxy-phenylamino)-N-(tetrahydro-pyran-4-ylmethyl)-nicotinamide] | – | > 50
CC(C)c1cc(N(C)c2ccc(Cl)c(Cl)c2)ncc1C(=O)NCC1CCOCC1 [Example 44, 6-[(3,4-Dichloro-phenyl)-methyl-amino]-4-isopropyl-N-(tetrahydro-pyran-4-ylmethyl)-nicotinamide] | – | > 50
CC(C)c1cc(Nc2cccc(Cl)c2)ncc1C(=O)NC1CCC1 [Example 50, 6-(3-Chloro-phenylamino)-N-cyclobutyl-4-isopropyl-nicotinamide] | < 300 | > 50
CC(C)c1cc(Nc2cccc(Cl)c2)ncc1C(=O)NCC1CC1 [Example 51, 6-(3-Chloro-phenylamino)-N-cyclopropylmethyl-4-isopropyl-nicotinamide] | < 300 | > 50
CCC(CC)CNC(=O)c1cnc(Nc2cccc(Cl)c2)cc1C(C)C [Example 52, 6-(3-Chloro-phenylamino)-N-(2-ethyl-butyl)-4-isopropyl-nicotinamide] | – | > 50
CC(C)c1cc(Nc2cccc(Cl)c2)ncc1C(=O)NC1CCCCC1 [Example 53, 6-(3-Chloro-Phenylamino)-N-cyclohexyl-4-isopropyl-nicotinamide] | < 300 | > 50
CC(C)c1cc(Nc2cccc(Cl)c2)ncc1C(=O)NCC1(O)CCCCC1 [Example 54, 6-(3-Chloro-phenylamino)-N-(1-hydroxy-cyclohexylmethyl)-4-isopropyl-nicotinamide] | < 300 | > 50
CC(C)c1cc(Nc2cccc(Cl)c2)ncc1C(=O)N1CCCCC1 [Example 55, 1-[6-(3-Chloro-phenylamino)-4-isopropyl-pyridin-3-yl]-1-piperidin-1-yl-methanone] | < 300 | > 50
COCCNC(=O)c1cnc(Nc2cccc(Cl)c2)cc1C(C)C [Example 57, 6-(3-Chloro-phenylamino)-4-isopropyl-N-(2-methoxy-ethyl)-nicotinamide] | – | > 50
CC(C)c1cc(Nc2cccc(Cl)c2)ncc1C(=O)NC1CCOCC1 [Example 58, 6-(3-Chloro-phenylamino)-4-isopropyl-N-(tetrahydro-pyran-4-yl)-nicotinamide] | – | > 50
CC(C)(C)c1cc(Nc2cccc(Cl)c2)ncc1C(=O)NCC1CCCCC1 [Example 69, 4-tert-Butyl-6-(3-chloro-phenylamino)-N-cyclohexylmethyl-nicotinamide] | < 300 | > 50
CC(C)(C)c1cc(Nc2ccc(Cl)cc2Cl)ncc1C(=O)NCC1CCCCC1 [Example 70, 4-tert-Butyl-6-(2,4-dichloro-phenylamino)-N-cyclohexylmethyl-nicotinamide] | < 300 | > 50
CC(C)(C)c1cc(Nc2cccc(Cl)c2)ncc1C(=O)NCC1CCOCC1 [Example 71, 4-tert-Butyl-6-(3-phenylamino)-N-(tetrahydro-pyran-4-ylmethyl)-nicotinamide] | < 300 | > 50
CC(C)(C)c1cc(Nc2cccc(F)c2)ncc1C(=O)NCC1CCOCC1 [Example 72, 4-tert-Butyl-6-(3-fluoro-phenylamino)-N-(tetrahydro-pyran-4-ylmethyl)-nicotinamide] | < 300 | > 50
CC(C)c1cc(Nc2cc(Cl)cc(Cl)c2)ncc1C(=O)NCC1CCOCC1 [Example 75, 6-(3,5-Dichloro-phenylamino)-4-isopropyl-N-(tetrahydro-pyran-4-ylmethyl)-nicotinamide] | < 300 | > 50

SMILES | EC50 [nM] | Emax [%]
CC(C)c1cc(Nc2cc(Cl)ccc2F)ncc1C(=O)NCC1CCOCC1 [Example 76, 6-(5-Chloro-2-fluoro-phenylamino)-4-isopropyl-N-(tetrahydro-pyran-4-ylmethyl)-nicotinamide] | < 300 | > 50
CC(C)c1cc(Nc2ccc(F)c(Cl)c2)ncc1C(=O)NCC1CCOCC1 [Example 77, 6-(3-Chloro-4-fluoro-phenylamino)-4-isopropyl-N-(tetrahydro-pyran-4-ylmethyl)-nicotinamide] | < 300 | > 50
CC(C)c1cc(Nc2ccc(OC(F)(F)F)c(Cl)c2)ncc1C(=O)NCC1CCOCC1 [Example 78, 6-(3-Chloro-4-trifluoromethoxy-phenylamino)-4-isopropyl-N-(tetrahydro-pyran-4-ylmethyl)-nicotinamide] | < 300 | > 50
CC(C)c1cc(Nc2ccc(C#N)c(Cl)c2)ncc1C(=O)NCC1CCOCC1 [Example 79, 6-(3-Chloro-4-cyano-phenylamino)-4-isopropyl-N-(tetrahydro-pyran-4-ylmethyl) nicotinamide] | – | > 50
CC(C)c1cc(Nc2cc(F)cc(C(F)(F)F)c2)ncc1C(=O)NCC1CCOCC1 [Example 80, 6-(3-Fluoro-5-trifluoromethyl-phenylamino)-4-isopropyl-N-(tetrahydro-pyran-4-ylmethyl) nicotinamide] | < 300 | > 50
CC(C)c1cc(Nc2cccc(C(F)(F)F)c2F)ncc1C(=O)NCC1CCOCC1 [Example 81, 6-(2-Fluoro-3-trifluoromethyl-isopropyl-N-phenylamino)-4-(tetrahydro-pyran-4-ylmethyl) nicotinamide] | – | > 50
CC(C)c1cc(Nc2ccc(Br)cc2Cl)ncc1C(=O)NCC1CCOCC1 [Example 82] | < 300 | > 50
CC(C)c1cc(Nc2ccc(Cl)cc2Br)ncc1C(=O)NCC1CCOCC1 [Example 83, 6-(2-Bromo-4-chloro-phenylamino)-4-isopropyl-N-(tetrahydro-pyran-4-ylmethyl) nicotinamide] | < 300 | > 50
Cc1c(Nc2cc(C(C)C)c(C(=O)NCC3CCOCC3)cn2)cccc1C(F)(F)F [Example 84, 4-lsopropyl-6-(2-methyl-3-trifluoromethyl-phenylamino)-N-(tetrahydro-pyran-4-ylmethyl)-nicotinamide] | < 300 | > 50
Cc1ccc(Nc2cc(C(C)C)c(C(=O)NCC3CCOCC3)cn2)cc1Cl [Example 85] | < 300 | > 50
Cc1cc(Nc2cc(C(C)C)c(C(=O)NCC3CCOCC3)cn2)ccc1Br [Example 86, 6-(4-Bromo-3-methyl-phenylamino)-4-isopropyl-N-(tetrahydro-pyran-4-ylmethyl)-nicotinamide] | < 300 | > 50
CC(C)c1cc(Nc2cc(Cl)ccc2Cl)ncc1C(=O)NCC1CCOCC1 [Example 87, 6-(2,5-Dichloro-phenylamino)-4-isopropyl-N-(tetrahydro-pyran-4-ylmethyl)-nicotinamide] | < 300 | > 50
Cc1ccc(C(F)(F)F)cc1Nc1cc(C(C)C)c(C(=O)NCC2CCOCC2)cn1 [Example 88, 4-lsopropyl-6-(2-methyl-5-trifluoromethyl-phenylamino)-N-(tetrahydro-pyran-4-ylmethyl)-nicotinamide] | < 300 | > 50
CC(C)c1cc(Nc2ccc(Cl)cc2Br)ncc1C(=O)NCC1CCCC1 [Example 89, 6-(2-Bromo-4-chloro-phenylamino)-N-cyclopentylmethyl-4-isopropyl-nicotinamide] | < 300 | > 50
CC(C)c1cc(Nc2ccc(Br)c(Cl)c2)ncc1C(=O)NCC1CCOCC1 [Example 90, 6-(4-Bromo-3-chloro-phenylamino)-4-isopropyl-N-(tetrahydro-pyran-4-ylmethyl)-nicotinamide] | < 300 | > 50
CC(C)c1cc(Nc2ccc(Cl)cc2F)ncc1C(=O)NCC1CCCC1 [Example 91, 6-(4-Chloro-2-fluoro-phenylamino)-N-cyclopentylmethyl-4-isopropyl-nicotinamide] | < 300 | > 50
CC(C)c1cc(Nc2ccc(C(F)(F)F)c(F)c2)ncc1C(=O)NCC1CCCC1 [Example 92, N-Cyclopentylmethyl-6-(3-fluoro-4-trifluoromethyl-phenylamino)-4-isopropyl-nicotinamide] | < 300 | > 50
